The subject of one assay is K562. Briefly: MTT cell viability assay, K562 cells. The format is cell-based. The note with it: Homo sapiens, 48 h drug exposure. The essentials:
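Human CML-derived K562 cells seeded at 1000-5000/well with 10% FBS, treated after 24 h with compound (10 to 0,01 µM) or 0.05% DMSO vehicle for 48 h. MTT (0.3 mg/ml) added 2-4 h at 37 °C, formazan dissolved in DMSO, OD 595 nm; IC50 from non-linear regression, 3 replicates.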
On the technique in general: Tetrazolium assays rely on reduction of a dye to a coloured formazan, in cell work by metabolically active cells.

In a further assay the test system is HEL 92.1.7. Nature of the assay: MTT cell viability assay, HEL cells. In kind it is cell-based. The note with it: Homo sapiens, 48 h drug exposure. As to the method: HEL 92.1.7 [American Type Culture Collection (ATCC) reference number TIB-180]. This a human cancer cell line derived from the bone marrow of a person with erythroleukemia, which is a form of AML.
(§1) Cell viability was assayed by measuring the mitochondrial reduction of the tetrazolium salt 3-(4,5-methyltiazol-2yl)-2,5diphenyl-tetrazolium bromide] (MTT) (Applichen; A2231,0010) [Mosmann T. J Immunol Methods. 1983 16;65(1-2):55-63 (ref. 36); Chuan Y-C et al 2010. Oncogene. 29 (10), 1531-1542 (ref. 37)]. Cells were seeded in 96-well plates in medium (either RPMI, DMEM or McCoys depending on the recommendations from the ATCC) supplemented with 10% FBS (Lonza Cat. N°: 14-502F), 2mM L-Glut (Lonza Cat. N°: BE17-605E) and 100U/ml PEST (Lonza Cat. N°: DE17-605E) at a cell density of 1000-5000 cells/well (96 well plate). Cells were seeded at a density according to their exponential growth phase (normally 1000 to 5000/well). The cells were cultured at 37 °C in the dark in air containing 5% CO2. After 24h either vehicle (0.05% DMSO) or drug were added to culture medium at the indicated concentrations (10 to 0,01microM). After another 48 h, MTT (0.3 mg/ml) was added to cells, followed by incubation for 2-4h at 37 °C in the dark. The medium was then removed and the precipitated formazan was solubilized by the addition of DMSO (200 µL).
(§2) The optical density was measured at 595 nm with the iMark Microplate Reader (BioRad, USA). Data was expressed as percent growth above the level in controls and the results in figures were plotted as means ± SEM of each test point from 3 replicates.
(§3) Statistical analysis. The concentration of drug that provokes 50% reduction of cell viability (IC50) was determined by using non-linear regression analysis and data were fitted to a log concentration vs normalized response curve in GraphPad software v5 (San Diego, CA).

The next assay concerns MDA-MB-231. Nature of the assay: MTT cell viability assay, MDA-MB-231 cells. The format is cell-based, human. The note with it: Homo sapiens, 48 h drug exposure. The essentials:
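MDA-MB-231 cells seeded in FBS-supplemented medium, treated after 24 h with compound (10 to 0,01 µM; vehicle 0.05% DMSO) for 48 h at 37 °C. MTT (0.3 mg/ml) added for 2-4 h, formazan dissolved in DMSO, OD read at 595 nm. IC50 from non-linear regression of log concentration vs normalized response.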

In a further assay the test system is PANC-1. Briefly: MTT cell viability assay, PANC-1 cells. To be noted: Homo sapiens, 48 h drug exposure. The format is cell-based. As to the method:
PANC-1 [American Type Culture Collection (ATCC) reference number CRL-1469]. This a human cancer cell line derived from the pancreas of a person.
as §1, §2, §3

A further assay concerns MCF-7. Briefly: MTT cell viability assay, MCF-7 cells. The format is cell-based. To be noted: Homo sapiens, MCF7, 48 h drug exposure. On the procedure:
as §1, §2, §3

For another assay, the system named is DU-145. Nature of the assay: MTT cell viability assay, DU-145 cells. The format is cell-based. The note with it: Homo sapiens, 48 h drug exposure. As to the method: DU-145 [American Type Culture Collection (ATCC) reference number HTB-81]. This a human prostate cancer cell line derived from a metastatic site (brain) of a person.
as §1, §2, §3

As usually defined, the IC50 is the concentration needed to halve the response being measured. As for `N#Cc1ccc(N2Cc3ccccc3OC3=C2C(=O)c2ccccc2C3=O)cc1` [Compound 2, 4-(6,11-dioxo-6,11-dihydrobenzo[f]naphtho[2,3-b][1,4]oxazepin-12(13H)-yl)benzonitrile], the IC50 with K562 was 0.57 µM; in the assay on HEL 92.1.7, 0.35 µM; with MDA-MB-231, 4.02 µM; in the assay on PANC-1 it was 5.6 µM; in the assay on MCF-7, 4.22 µM; in the assay with DU-145, greater than 10 µM.
For the compound `N#Cc1ccc(N2Cc3ccccc3OC3=C2C(=O)c2c(O)ccc(O)c2C3=O)cc1` [Compound 8, 4-(7,10-dihydroxy-6,11-dioxobenzo[f]naphtho[2,3-b][1,4]oxazepin-12(6H,11H,13H)-yl)benzonitrile], the IC50 in the assay with K562 came to 0.23 µM; with HEL 92.1.7, 0.1 µM; in the assay with MDA-MB-231, 0.36 µM; in the assay on PANC-1 it was 0.32 µM; in the assay with MCF-7, 2.59 µM; with DU-145 it was 6.04 µM.
Turning to `NS(=O)(=O)c1ccc(N2Cc3ccccc3OC3=C2C(=O)c2c(O)ccc(O)c2C3=O)cc1` [Compound 40, 4-(7,10-dihydroxy-6,11-dioxo-6,11-dihydrobenzo[f]naphtho[2,3-b][1,4]oxazepin-12(13H)-yl)benzenesulfonamide], the IC50 in the assay with K562 worked out at 0.59 µM; in the assay on HEL 92.1.7, 0.21 µM; in the assay on MDA-MB-231, 1.96 µM; in the assay with PANC-1, 0.63 µM; in the assay with MCF-7 it was 2.52 µM; in the assay with DU-145, 6.13 µM.
As to `NC(=O)c1cccc(N2Cc3ccccc3OC3=C2C(=O)c2c(O)ccc(O)c2C3=O)c1` [Compound 54, 3-(7,10-dihydroxy-6,11-dioxo-6,11-dihydrobenzo[f]naphtho[2,3-b][1,4]oxazepin-12(13H)-yl)benzamide], the IC50 was 0.07 µM in the assay with K562; 0.09 µM in the assay with HEL 92.1.7; 0.19 µM in the assay with MDA-MB-231; 0.38 µM in the assay with PANC-1; 1.28 µM in the assay on MCF-7; 3.41 µM with DU-145.
`O=C1C2=C(C(=O)c3c(O)ccc(O)c31)N(c1ccc(N3CCOCC3)nc1)Cc1ccccc1O2` [Compound 59]: the IC50 in the assay on K562 turned out to be 0.05 µM; in the assay with HEL 92.1.7, 0.06 µM; in the assay on MDA-MB-231, 0.21 µM; in the assay with PANC-1, 0.28 µM; in the assay on MCF-7, 0.72 µM; with DU-145, 0.54 µM.
Regarding `CN(C)c1ccc(N2Cc3ccccc3OC3=C2C(=O)c2c(O)ccc(O)c2C3=O)cn1` [Compound 62, 12-(6-(dimethylamino)pyridin-3-yl)-7,10-dihydroxy-12,13-dihydrobenzo[f]naphtho[2,3-b][1,4]oxazepine-6,11-dione], the IC50 with K562 came out at 0.1 µM; with HEL 92.1.7 it was 0.07 µM; in the assay on MDA-MB-231, 0.27 µM; in the assay with PANC-1 it was 1.55 µM; with MCF-7, 3 µM; in the assay with DU-145, 1.32 µM.
As for `CN1CCN(c2ccc(N3Cc4ccccc4OC4=C3C(=O)c3c(O)ccc(O)c3C4=O)cn2)CC1` [Compound 81, 7,10-dihydroxy-12-(6-(4-methylpiperazin-1-yl)pyridin-3-yl)-12,13-dihydrobenzo[f]naphtho[2,3-b][1,4]oxazepine-6,11-dione], the IC50 stood at 0.02 µM with K562; 0.05 µM with HEL 92.1.7; 0.32 µM in the assay with MDA-MB-231; 0.26 µM in the assay with PANC-1; 0.91 µM with MCF-7; 0.82 µM in the assay with DU-145.
For the compound `CN(C)CCNc1ccc(N2Cc3ccccc3OC3=C2C(=O)c2c(O)ccc(O)c2C3=O)cn1` [Compound 97, 12-(6-((2-(dimethylamino)ethyl)amino)pyridin-3-yl)-7,10-dihydroxy-12,13-dihydrobenzo[f]naphtho[2,3-b][1,4]oxazepine-6,11-dione], the IC50 in the assay with K562 turned out to be 0.44 µM; in the assay with MDA-MB-231, 0.35 µM; with PANC-1, 0.42 µM; in the assay on MCF-7, 0.79 µM; in the assay on DU-145 it was 0.68 µM.

For the origin of these results see EP4177246A1, “FUSED OXAZEPINES AS INHIBITORS OF PEROXIREDOXINS” (Centro Atlántico del Medicamento, SA, priority 2021, dated 2023).
